Source: patent US6881421B1 (Bioalliance Pharma S.A., priority 1998, dated 2005)
In brackets after ≈: the same amount, converted by molar mass.

Assays:
[1] = Titration of progesterone/steroid content of nanoparticles by HPLC; format: physicochemical; conditions: for Drug load: average of 3 values; for Increase in content load (number of times): PIBCA/HP CD particles versus PIBCA without HP CD; for Content of combined PIBCA and HP CD particles / Content of PIBCA nanoparticles without HP CD: average of three preparations; for Content of PIBCA nanoparticles without HP CD: reference particles
Description: (§1) The different suspensions of nanoparticles were centrifuged at 82,000 g for 30 to 40 min at 25° C. (Beckman, L5-65 Ultracentrifuge, 70.1 Ti type rotor) and resuspended in 5 ml distilled water. The suspensions were finally freeze-dried (Christ HED Freeze Drier, Germany).
To titrate the progesterone content in the nanoparticles, the freeze-dried products were diluted in acetonitrile of HPLC grade and the solutions analyzed by high performance liquid chromatography (HPLC). The HPLC system consisted of a 510 solvent delivery unit (Waters-Saint-Quentin-en-Yvelines, France), a WISP 712 automatic sampler, a column Nova-Pak C18 4 μm column (250×4.6 mm), a 486 absorbency detector which operated at 245 NM and interfaced with a 746 data module. The flow rate was 1.0 ml/min and the mobile phase made up of water and acetonitrile (40:60) for which the retention time was approximately 12 min. The results were expressed as an average of three titrations.
The different steroids were determined as in Example 6 so that the titration of these different substances was conducted under the same analytical conditions.

[2] = Titration of cyclodextrin content of nanoparticles (phenolphthalein spectrophotometry); format: physicochemical
Description: as §1
For quantification of HPβCD, the freeze-dried nanoparticles were hydrolyzed with 0.2 M NaOH for 12 hours, the pH adjusted to 7.0 (±0.5) and the HPBCD quantified by spectrophotometric titration of the discoloring of phenolphthalein solutions in the presence of HPβCD. Phenolphthalein formed stable, colorless inclusion complexes with cyclodextrins (CD). Consequently, the color intensity of a phenolphthalein solution in alkaline borate buffer decreased in proportion to the quantity of CD in solution.
Reference solutions were prepared by diluting mother solutions of CD in alkaline borate buffer solution with pH 10.0 containing 2% ethanol solution of 0.006 M phenolphthalein. The reference curves (λ=550 nm) are linear for CD concentrations ranging from 1 to 100 μg/ml. To the samples were added 4 parts buffer solution containing phenolphthalein and they were then tested directly.
The HPβCD was also titrated as in Example 6.

[3] = In vitro release of HPβCD from PIBCA/HPβCD nanoparticles; format: physicochemical; conditions: ABB medium, 37° C.; during the first hour
Description: Study of the release of HPBCD was conducted as for progesterone in ABB medium with quantification of the CD content after ultracentrifuging, by complexation with phenolphthalein as described above. The CD concentration at 100% release was approximately 100 μg/ml.

[4] = Solubility of progesterone; format: physicochemical; conditions: polymerization medium, aqueous with cosolvent or surfactant or cyclodextrin; diluted hydrochloric acid (pH 2.0), 1% (w/v) poloxamer 188; read-out: maximum solubility in the polymerization medium
[5] = In vitro release of progesterone from PIBCA/HPβCD nanoparticles; format: physicochemical; conditions: for progesterone released, second slower phase / progesterone released, initial rapid release: ABB pH 8.4, 37° C.; for progesterone released, initial rapid release: first hour; for progesterone released: ABB with 40% PEG 400
Description: A weighed quantity of freeze-dried nanoparticles (containing 1% (w/v) of glucose) was placed in a bottle containing 15 ml of alkaline borate buffer solution (ABB) (pH 8.4) or of ABB containing esterases (25 and 100 IU) or of ABB/poly(ethyleneglycol) 400 (PEG) at 20 and 40% (v/v). The samples were magnetically stirred at 200 r/min and 37° C., and taken at predetermined intervals. The suspensions were centrifuged at 82,000 g for 30 minutes at 20° C., then the progesterone content of the supernatant is determined for all media and the HPβCD content for the PEG media. The progesterone content is determined using HPLC as described above with injection of 100 μl for the samples incubated in ABB media and 20 μl for the PEG media.
All the tests are conducted under conditions such 15 that the active ingredient concentration during the release stage is maintained below 10% saturation.

[6] = cited from earlier work
[7] = PIBCA nanoparticles without HPβCD
[8] = PIBCA/HPBCD nanoparticles (10 mg/ml HPβCD)

Compound | Drug load [1, 7] [mg/g] | Increase in content load (number of times) [1] | Drug load [1, 8] [mg/g] | Content of combined PIBCA and HP CD particles [1] [mmol/g] | Content of PIBCA nanoparticles without HP CD [1] [mmol/g] | also measured
C#C[C@]1(O)CC[C@H]2[C@@H]3CCC4=Cc5oncc5C[C@]4(C)[C@H]3CC[C@@]21C [Danazol, danazol] | 0.34 | 32.9 number of times | 11.2 | 33.19 | 1.01 | 
CC(O)COC[C@H]1O[C@@H]2O[C@H]3[C@H](O)[C@@H](O)[C@@H](O[C@H]4[C@H](O)[C@@H](O)[C@@H](O[C@H]5[C@H](O)[C@@H](O)[C@@H](O[C@H]6[C@H](O)[C@@H](O)[C@@H](O[C@H]7[C@H](O)[C@@H](O)[C@@H](O[C@H]8[C@H](O)[C@@H](O)[C@@H](O[C@H]1[C@H](O)[C@H]2O)O[C@@H]8COCC(C)O)O[C@@H]7COCC(C)O)O[C@@H]6COCC(C)O)O[C@@H]5COCC(C)O)O[C@@H]4COCC(C)O)O[C@@H]3COCC(C)O (stereo partly drawn) [HPβCD, 2-hydroxypropyl-β-cyclodextrin] |  |  |  |  |  | quantity of HPβCD associated with the particles ([2]; equal initial masses of HPβCD and isobutylcyanoacrylate in the polymerization medium): approximately 35%; quantity of HPβCD associated with the particles ([2]; maximum reached with increasing HPβCD (FIG. 3)): about 60 % of particle weight; cyclodextrin released [3]: ~100%
C[C@]12CCC(=O)C=C1CC[C@@H]1[C@@H]2[C@@H](O)C[C@@]2(C)[C@H]1CC[C@]2(O)C(=O)CO [Hydrocortisone, hydrocortisone] | 2.19 | 7.0 number of times | 15.3 | 42.21 | 6.04 | 
CC(=O)O[C@]1(C(C)=O)CC[C@H]2[C@@H]3C=C(C)C4=CC(=O)CC[C@]4(C)[C@H]3CC[C@@]21C [Megestrolacetate, megestrol acetate] | 0.25 | 5.6 number of times | 1.4 | 3.64 | 0.65 | 
C[C@]12C=CC(=O)C=C1CC[C@@H]1[C@@H]2[C@@H](O)C[C@@]2(C)[C@H]1CC[C@]2(O)C(=O)CO [Prednisolone, prednisolone] | 0.12 | 129.2 number of times | 15.5 | 43.00 | 0.33 | Increase in content load (number of times) ([1]; listed as prednisolone): 129 number of times
CC(=O)[C@H]1CC[C@H]2[C@@H]3CCC4=CC(=O)CC[C@]4(C)[C@H]3CC[C@]12C [Progesterone, progesterone] | 0.79 | 27.7 number of times | 24.0 | 69.60 | 2.51 | solubility [4]: ~60 µg/mL (≈ 191 µM); progesterone content ([1]; larger particles (170 nm)): 10.5 µg/mg; progesterone content of particles ([1]; prepared in the presence of HPβCD, highest content (FIG. 5)): 45 μg/mg of particles; active ingredient content ([1]; smallest nanoparticles (70 nm)): 24 µg/mg; progesterone released, second slower phase ([5]; 70 nm nanoparticles): ~62%; progesterone released, initial rapid release ([5]; 70 nm nanoparticles): ~34%; progesterone released, second slower phase ([5]; 150 nm nanoparticles): approximately 35%; progesterone released, initial rapid release ([5]; 150 nm nanoparticles): approximately 10%; progesterone released ([5]; first-named formulation (150 nm)): approximately 75%; progesterone released ([5]; second-named formulation (70 nm)): ~82%; quantity of released progesterone ([5]; ABB with esterases (25 and 100 IU), both tested formulations): ~100%; water-solubility [6]: 10 µg/mL
CC(=O)S[C@@H]1CC2=CC(=O)CC[C@]2(C)[C@H]2CC[C@@]3(C)[C@@H](CC[C@@]34CCC(=O)O4)[C@H]12 [Spironolactone, spironolactone] | 7.65 | 6.9 number of times | 53.0 | 127.23 | 18.36 | 
C[C@]12CC[C@H]3[C@@H](CCC4=CC(=O)CC[C@@]43C)[C@@H]1CC[C@@H]2O [Testosterone, testosterone] | 2.27 | 8.6 number of times | 19.5 | 67.6 | 7.87 | 
